A short description of series [1]: physchem.
Series [2] in a line: physchem. As to conditions: octan-1-ol/water.

Structures are written as SMILES.

In turn, `CCOC(=O)N1CCC(Nc2ccccn2)CC1` displayed a pKa in series [1] of 6.6.

In series [2] (pH 7.4, LogD7.4), `COc1ccnc(NC2CCN(C(=O)c3ccc(Cl)cc3)CC2)c1` came in with a logD of 2.82. This compound had a pKa in series [1] of 7.2.

In series [2] (pH 7.4, LogD7.4), `NC1=NC(c2cccs2)Nc2cccc(F)c21` (stereo not drawn) showed a logD of 0.91. In series [1], the pKa turned out to be 8.73.

`COc1ccc(CNc2cc(C)ccn2)c(O)c1` showed a pKa in series [1] of 6.8.

In series [2] (pH 7.4, LogD7.4), `COc1ccccc1CNc1cc(C)ccn1` had a logD of 3.28. In addition, the pKa in series [1] was determined as 7.1.

For `Cc1ccnc(NCc2ccccc2O)c1`, the logD in series [2] (pH 7.4, LogD7.4) was found to be 3.35. In series [1], this compound showed a pKa of 6.8.

`Cc1ccnc(NCc2c(O)ccc3ccccc23)c1`: in series [1], the pKa was 6.6.

In turn, `O=C(O)COc1ccc(Cl)cc1CN1CCC(S(=O)(=O)c2ccccc2)CC1` returned a logD in series [2] (pH 7.4, LogD7.4) of 0.48. The compound also returned a pKa in series [1] of 7.8.

In series [1], `CCOC(=O)N1CCC2(CC1)N=C(N)c1sccc1N2` yielded a pKa of 10.5.

`c1ccc(CSc2nnc([C@@H]3CCCN3)o2)cc1` came in with a pKa in series [1] of 7.03.

In the case of `CCOC(=O)N1CCC2(CC1)N=C(N)c1c(F)cccc1N2`, the pKa in series [1] came to 9.1.

Regarding `NC1=NC(c2ccccc2)Nc2ccccc21` (stereo not drawn), the pKa in series [1] is 9.83.

With `NCC(Oc1cc(Cl)ccc1Cl)c1ccccc1` (stereo not drawn), the pKa in series [1] was determined as 8.5.

`Cc1ccnc(NCc2ccccc2)c1` yielded a logD in series [2] (pH 7.4, LogD7.4) of 3.08. Further, the pKa in series [1] worked out at 7.

In series [1], `Cc1ccc(C#N)c(S[C@H](CCN)c2ccccc2)n1` came in with a pKa of 9.8.

Consider `CN(C(=O)Cc1ccc(S(=O)(=O)N(C)C)cc1)C1CCN(CCC(c2ccccc2)c2ccccc2)CC1`, for which the pKa in series [1] is 8.1.

Consider `Cc1ncc[nH]1`, for which, in series [1], the pKa amounted to 7.8.

Turning to `CCc1ncc[nH]1`, in series [1], the pKa stood at 7.8.

`NC1=Nc2cccc3cccc(c23)N1` yielded a pKa in series [1] of 7.6.

The compound `NC1=NC(c2ccc(F)cc2)Nc2cccc(F)c21` (stereo not drawn) gave a pKa in series [1] of 9.

In series [2] (pH 7.4, LogD7.4), `NC1=NC(c2ccco2)Nc2c(F)ccc(F)c21` (stereo not drawn) displayed a logD of 1.2. In addition, the pKa in series [1] was found to be 8.2.

`CCOC(=O)N1CCC2(CC1)N=C(N)c1c(Cl)cccc1N2` had a pKa in series [1] of 9.

In series [2] (pH 7.4, LogD7.4), `N#Cc1ccc(C(=O)N2CCC3(CC2)N=C(N)c2c(F)cccc2N3)cc1` showed a logD of 0.66. In series [1], this compound came in with a pKa of 9.

`NC1=NC(c2ccco2)Nc2ccccc21` (stereo not drawn) displayed a pKa in series [1] of 9.13.

With `Cc1nc(N)sc1C`, the pKa in series [1] was determined as 6.3.

In series [1], `NCCc1ccc(Cl)cc1` yielded a pKa of 10.1.

For the compound `NCCc1ccc([N+](=O)[O-])cc1`, in series [1], the pKa worked out at 9.4.

In series [2] (pH 7.4, LogD7.4), `O=C(NCC12CC3CC(CC(C3)C1)C2)c1cc(OC2CCNCC2)ncc1Cl` registered a logD of 1.56. Besides, the pKa in series [1] turned out to be 9.1.

`Cc1cc(C)nc(N)c1`: the pH-dependent lipophilicity (logD) in series [2] (pH 7.4, LogD7.4) came to 0.85. The pKa in series [1] was found to be 7.7.

For the compound `Cc1ccnc(N)c1N`, the pKa in series [1] came to 7.2.

In series [1], `NC1=NC(C2CC2)Cc2ccccc21` (stereo not drawn) displayed a pKa of over 11.

In series [1], `NC1=NC(C2CC2)Cc2ccsc21` (stereo not drawn) came in with a pKa of over 11.

On to `CCN(CC)CCNC(=O)c1ccc(NC(C)=O)cc1` [ACECAINIDE], for which the pKa in series [1] worked out at 9.14.

In the case of `CCN(CC)C(C)C(=O)c1ccccc1` (stereo not drawn) [DIETHYLPROPION], in series [2] (pH 7.4), the logD is 1.18. Further, the pKa in series [1] was 8.8.

In turn, `CN(C)CCn1cnc2c1c(=O)n(C)c(=O)n2C` [DIMETHAZAN] returned a pKa in series [1] of 7.5.

In turn, `COc1ccc2c3c1O[C@H]1C[C@@H](O)C=C[C@@]31CCN(C)C2` [GALANTAMINE] displayed a pKa in series [1] of 8.21.

Compound `CN1CCC(=C2c3ccccc3CC(=O)c3sccc32)CC1` [KETOTIFEN] gave a pKa in series [1] of 9.

For the compound `COc1ccc(OC)c(C(O)CNC(=O)CN)c1` (stereo not drawn) [MIDODRINE], in series [1], the pKa is 7.59.

Consider `c1ccc2c(CC3=NCCN3)cccc2c1` [NAPHAZOLINE], for which the pKa in series [1] is 10.3.

As for `c1ccc2c(c1)CCCC2C1=NCCN1` (stereo not drawn) [TETRAHYDROZOLINE], in series [1], the pKa was found to be 10.6.

The compound `c1ccc(CC2=NCCN2)cc1` [TOLAZOLINE] returned a pKa in series [1] of 10.7.

`Cc1cc(C(C)(C)C)cc(C)c1CC1=NCCN1` [XYLOMETAZOLINE] had a pKa in series [1] of 10.6.

Source of the values: ChEMBL document CHEMBL3301361, “Experimental in vitro DMPK and physicochemical data on a set of publicly disclosed compounds”.
